Source: patent US10273236B2, “Macrocyclic factor XIa inhibitors bearing heterocyclic groups” (Bristol-Myers Squibb Company, priority 2014, dated 2019)
Like-named read-outs stand apart in the source and are kept apart here.

Assays:
[1] = from C=CC[C@H](NC(=O)OC(C)(C)C)c1cc(-c2c(NC(=O)C(C=C)C(C)C)cnn2C)ccn1; rcm bond; 12-membered ring; Grubbs II (40 mol%); DCE; 36.7 mM; 120.0 °C
[2] = rcm bond, 12-membered ring
factor XIa = factor XIa (Homo sapiens, UniProt P03951); settings: value taken from WO 2014/022767, Table 1, page 89; cited from earlier work
Sequence of factor XIa (P03951 388-625 limits assumed): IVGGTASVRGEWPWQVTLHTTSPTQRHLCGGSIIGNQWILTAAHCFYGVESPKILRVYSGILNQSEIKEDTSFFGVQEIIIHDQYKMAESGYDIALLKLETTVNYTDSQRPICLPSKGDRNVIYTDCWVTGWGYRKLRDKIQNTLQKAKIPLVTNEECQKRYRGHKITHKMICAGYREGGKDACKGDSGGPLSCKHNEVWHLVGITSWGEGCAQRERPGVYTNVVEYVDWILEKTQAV
Sequence of factor XIa (P03951 19-387 partner limits assumed): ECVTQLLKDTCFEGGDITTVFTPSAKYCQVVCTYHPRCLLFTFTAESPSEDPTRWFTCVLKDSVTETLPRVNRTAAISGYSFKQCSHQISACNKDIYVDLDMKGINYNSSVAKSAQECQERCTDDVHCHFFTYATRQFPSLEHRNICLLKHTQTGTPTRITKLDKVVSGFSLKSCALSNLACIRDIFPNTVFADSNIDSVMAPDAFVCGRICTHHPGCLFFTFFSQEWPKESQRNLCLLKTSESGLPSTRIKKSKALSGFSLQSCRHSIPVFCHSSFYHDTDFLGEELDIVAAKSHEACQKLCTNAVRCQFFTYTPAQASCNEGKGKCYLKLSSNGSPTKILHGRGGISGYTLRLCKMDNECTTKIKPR

`CC(C)[C@@H]1/C=C/C[C@H](NC(=O)OC(C)(C)C)c2cc(ccn2)-c2c(cnn2C)NC1=O` gave a ring closure, yield after HPLC [1] of 16.8%.
`CC(C)[C@H]1/C=C/C[C@H](NC(=O)OC(C)(C)C)c2cc(ccn2)-c2c(cnn2C)NC1=O` showed a ring closure, yield after HPLC [1] of 16.8%.
`C[C@@H]1/C=C/C[C@H](NC(=O)OC(C)(C)C)c2cc(ccn2)-c2c(cnn2C(F)F)NC1=O` showed a ring closure, isolated yield ([2]; from C=CC[C@H](NC(=O)OC(C)(C)C)c1cc(-c2c(NC(=O)[C@H](C)C=C)cnn2C(F)F)ccn1, Grubbs II (25 mol%), EtOAc, 5.0 mM) of 76%.
Compound `C[C@@H]1/C=C/C[C@H](NC(=O)OC(C)(C)C)c2cc(ccn2)-c2c(cnn2C)NC1=O` has a ring closure, isolated yield ([2]; from C=CC[C@H](NC(=O)OC(C)(C)C)c1cc(-c2c(NC(=O)[C@H](C)C=C)cnn2C)ccn1, Grubbs II (40 mol%), DCE, 78.3 mM, 120.0 °C) of 20%.
`C[C@@H]1/C=C/C[C@H](NC(=O)OC(C)(C)C)c2cccc(n2)-c2c(cnn2C)NC1=O` gave a ring closure, isolated yield ([2]; from C=CC[C@H](NC(=O)OC(C)(C)C)c1cccc(-c2c(NC(=O)[C@H](C)C=C)cnn2C)n1, Grubbs II (40 mol%), EtOAc, 13.2 mM, 80.0 °C) of 66%.
`C[C@@H]1/C=C/C[C@H](NC(=O)OCc2ccccc2)c2cc(ccn2)-c2c(cnn2CCOC(C)(C)C)NC1=O` gave a ring closure, isolated yield ([2]; from C=CC[C@H](NC(=O)OCc1ccccc1)c1cc(-c2c(NC(=O)[C@H](C)C=C)cnn2CCOC(C)(C)C)ccn1, Grubbs II (40 mol%), DCE, 35.6 mM, 120.0 °C, 0.5 h) of 38%.
In the case of `C[C@@H]1CCC[C@H](N2CCC(c3c(F)ccc(Cl)c3F)=CC2=O)c2cc(ccn2)-c2cn[nH]c2NC1=O` [Example 221], the Ki (factor XIa) is listed as 1.32 µM.
